Entries after “also recorded” stand apart in the source; their conditions may differ. Where a name gives a salt, the structure may show the parent alone. Read-outs that look alike come from different tables or passages of the source.
What was measured:
L1210 cells [1] = settings: cited from earlier work
L1210 cells [2] = settings: 48 hours, cited from earlier work; for Analogue, corresponding tetraamine (in parentheses): intracellular amount
[3] = system: S-adenosylmethionine decarboxylase (AdoMetDC); settings: L1210, 1 μM at 6 hours; cited from earlier work
L1210 cells [4] = test: Metabolic transformation of polyamine analogues by L1210 cells; assay type: in vitro ADME, murine; settings: for N-dealkylation (result in words): L1210 cells, data not shown, concentration not given; for Parent drug as % of total drug in the cell / Parent drug in L1210 cells / Elaboration to tetraamine (result in words): 48 hours, 100 μM analogue; for Elaboration to tetraamine (result in words): Trihydrochloride
Protocol: The cells were washed twice with cold RPMI-1640, and the pellet was treated with 0.6 N HClO4 (1 ml/10^7 cells). Polyamine contents of the perchloric acid extracts were quantitated by HPLC of the DANSYL derivatives [Bergeron et al, J. Med. Chem., Vol. 37, supra].

[5] = system: spermidine/spermine acetyltransferase (SSAT); settings: L1210, 2 μM at 48 hours (tetraamine analogues); cited from earlier work
[6] = target: polyamine transport apparatus; settings: inhibition of spermidine transport, L1210; read-out: Ki, corresponding tetraamine (in parentheses); cited from earlier work
[7] = system: ornithine decarboxylase (ODC); test: ODC activity in treated L1210 cells; assay type: cell-based, murine; settings: L1210, 1 μM at 4 hours
Method in brief: (§1)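 L1210 cells treated with triamines; ODC activity measured at 4 h and AdoMetDC at 6 h as ^14CO2 released from [^14C]-carboxyl-labeled L-ornithine (ODC) or S-adenosyl-L-methionine (AdoMetDC). Untreated cells served as controls and DEHSPM-treated cells as positive controls.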

[8] = system: spermidine/spermine acetyltransferase (SSAT); test: SSAT activity in treated L1210 cells; assay type: cell-based, murine; settings: L1210, 10 μM at 48 hours (triamine analogues)
Excerpt: Spermidine/spermine N^1-acetyltransferase activity was based on quantitation of [^14C]-N^1-acetylspermidine formed by acetylation of SPD with [^14C] acetyl coenzyme A according to the method of Libby et al [Biochem. Pharmacol., Vol. 38, supra]. Cells treated with DENSPM were positive controls.

L1210 cells [9] = test: Polyamine pool analysis in L1210 cells; assay type: cell-based, murine; settings: for activity at 100 µM / activity at 500 µM: Mus musculus, L1210, 48 h, % of untreated control; for Analogue: intracellular amount, 48 hours
Method in brief: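 Cells were exposed to each analogue for 48 h at two concentrations. Washed pellets were extracted with 0.6 N HClO4 (1 ml/10^7 cells), and polyamines were quantified by HPLC of dansyl derivatives.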

[10] = system: polyamine transport apparatus; test: Competitive uptake determination: inhibition of [3H]spermidine transport into L1210 cells; assay type: cell-based, murine; settings: analogue inhibition of spermidine transport
Method in brief: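 Analogues competed with [3H]spermidine for uptake into L1210 cells. Values are Ki, derived from Lineweaver–Burk analysis as competitive inhibition with respect to spermidine.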

L1210 cells [11] = test: L1210 growth inhibition, IC50 determination; assay type: cell-based, murine; settings: Mus musculus
Protocol: Murine L1210 leukemia cells (ATCC CCL 219) were maintained in logarithmic growth in RPMI-1640 medium containing 10% fetal calf serum or a semi-synthetic equivalent, NuSerum, 2% HEPES-MOPS buffer and 1 mM aminoguanidine.

[12] = system: S-adenosylmethionine decarboxylase (AdoMetDC); test: AdoMetDC activity in treated L1210 cells; assay type: cell-based, murine; settings: L1210, 1 μM at 6 hours
Method in brief: as §1

[13] = L1210, 48 hour exposure, read-out: IC50 48 hour, corresponding tetraamine (in parentheses)
[14] = L1210, 96 hour exposure, read-out: IC50 96 hour, corresponding tetraamine (in parentheses)
[15] = L1210, 48 h, L1210, 48 hour exposure, read-out: IC50 48 hour
[16] = L1210, 96 h, L1210, 96 hour exposure, read-out: IC50 96 hour

| Compound | IC50 (L1210 cells [1]; [13]) [nM] | IC50 (L1210 cells [1]; [14]) [nM] | AdoMetDC activity, corresponding tetraamine (in parentheses) [3] | SSAT activity, corresponding tetraamine (in parentheses) [5] | Ki [6] [µM] | ODC activity, percent of untreated control [7] | SSAT activity, percent of untreated control [8] | activity at 100 µM (L1210 cells [9]; 100 μM, read-out: Put) [%] | activity at 100 µM (L1210 cells [9]; 100 μM, read-out: Spd) [%] | activity at 100 µM (L1210 cells [9]; 100 μM, read-out: Spm) [%] | activity at 500 µM (L1210 cells [9]; 500 μM, read-out: Put) [%] | activity at 500 µM (L1210 cells [9]; 500 μM, read-out: Spm) [%] | Analogue (L1210 cells [9]; 100 μM) [nmol/10^6 cells] | Analogue (L1210 cells [9]; 500 μM) [nmol/10^6 cells] | Ki [10] [µM] | Parent drug as % of total drug in the cell (L1210 cells [4]) [%] | Parent drug in L1210 cells (L1210 cells [4]) [pmols/10^6] | IC50 (L1210 cells [11]; [15]) [µM] | IC50 (L1210 cells [11]; [16]) [µM] | AdoMetDC activity, percent of untreated control [12] | also measured |
| --- | --- | --- | --- | --- | --- | --- | --- | --- | --- | --- | --- | --- | --- | --- | --- | --- | --- | --- | --- | --- | --- |
| CNCCCNCCCNCCCNC [DMNSPM] | > 100000 | 2500 | 49% of untreated control | 200% of untreated control | 5.6 |  |  |  |  |  |  |  |  |  |  |  |  |  |  |  | Put, corresponding tetraamine (in parentheses) (L1210 cells [2]; % of untreated control, 500 μM): (0) %; Spd, corresponding tetraamine (in parentheses) (L1210 cells [2]; % of untreated control, 500 μM): (3) %; Spm, corresponding tetraamine (in parentheses) (L1210 cells [2]; % of untreated control, 500 μM): (27) %; Analogue, corresponding tetraamine (in parentheses) (L1210 cells [2]; 100 μM): (2.14) nmol/10^6 cells; Analogue, corresponding tetraamine (in parentheses) (L1210 cells [2]; 500 μM): (1.84) nmol/10^6 cells; N-dealkylation (result in words) (L1210 cells [4]): no evidence of N-dealkylation |
| CNCCCNCCCCNCCCNC [DMSPM] | > 100000 | 750 | 40% of untreated control | 300% of untreated control | 1.1 |  |  |  |  |  |  |  |  |  |  |  |  |  |  |  | Analogue, corresponding tetraamine (in parentheses) (L1210 cells [2]; 100 μM): (1.26) nmol/10^6 cells; Analogue, corresponding tetraamine (in parentheses) (L1210 cells [2]; 500 μM): (1.24) nmol/10^6 cells; N-dealkylation (result in words) (L1210 cells [4]): no evidence of N-dealkylation |
| CCNCCCNCCCNCCCN [MENSPM] | > 100000 | 2500 | 33% of untreated control | 410% of untreated control | 7.7 |  |  |  |  |  |  |  |  |  |  |  |  |  |  |  |  |
| CCNCCCCNCCCN [MESPD(N8), N^8-Ethylspermidine Trihydrochloride] |  |  |  |  |  | 17% of untreated control | 400% of untreated control | 0 | 26 | 84 | 0 | 61 | 4.41 | 4.96 | 7 | 99.4 | 4825 | > 100 | 40 | 54% of untreated control | activity at 500 µM (L1210 cells [9]; 500 μM, read-out: Spd): 15%; Elaboration to tetraamine (result in words) (L1210 cells [4]; listed as N8-ME-[4,3]): no evidence of a tetraamine elaboration metabolite; also recorded: no elaboration of N8-Alkyl [4,3] |
| CCCNCCCNCCCN [MPNSPD, N^1-Propylnorspermidine Trihydrochloride] |  |  |  |  |  | 33% of untreated control | 470% of untreated control | 0 | 29 | 56 | 0 | < 50 | 3.07 | 4.78 | 33 | 94.3 | 3019 | > 100 | ~100 | 38% of untreated control | Elaboration to tetraamine (result in words) (L1210 cells [4]; listed as MP-[3,3]): no evidence of a tetraamine elaboration metabolite; also recorded: no elaboration of N-Monoalkyl [3,3] |
| CCCNCCCNCCCCN [MPSPD(N1), N^1-Propylspermidine Trihydrochloride] |  |  |  |  |  | 18% of untreated control | 1200% of untreated control | 0 | 25 | 90 | 0 | 72 | 3.97 | 4.95 | 3 | 93.9 | 4238 | > 100 | 20 to 35 | 56% of untreated control | activity at 500 µM (L1210 cells [9]; 500 μM, read-out: Spd): 15% |
| CCCNCCCCNCCCN [MPSPD(N8), N^8-Propylspermidine Trihydrochloride] |  |  |  |  |  | 14% of untreated control | 500% of untreated control | 0 | 33 | 103 | 0 | 95 | 3.52 | 5.16 | 8.5 | 99.3 | 3549 | > 100 | 50 to 60 | 64% of untreated control | activity at 500 µM (L1210 cells [9]; 500 μM, read-out: Spd): 16%; Elaboration to tetraamine (result in words) (L1210 cells [4]; listed as N8-MP-[4,3]): no evidence of a tetraamine elaboration metabolite; also recorded: no elaboration of N8-Alkyl [4,3] |

— patent publication US20020045780A1, “Biologically active spermidine analogues, pharmaceutical compositions and methods of treatment” (priority 1997, published 2002)
